Measurements taken from ChEMBL document CHEMBL1151677, “Bicinchoninic acid protein assay in the determination of adriamycin cytotoxicity modulated by the MDR glycoprotein” (1996).
Values after ≈ are worked out from the molar mass of the structure shown. Active and inactive are the calls of the source. The calls are words filed in the database; no cut-off is given here.

Key:
[1] = test system: MCF/ADR; assay: Reversal of P-gp-mediated multidrug resistance in human MCF/ADR cells assessed as ratio of adriamycin ED50 without drug to adriamycin ED50 with drug at 0.28 uM after 6 days by BCA assay; format: cell-based
[2] = test system: MCF/ADR; assay: Reversal of P-gp-mediated multidrug resistance in human MCF/ADR cells assessed as ratio of adriamycin ED50 without drug to adriamycin ED50 with drug at 0.53 uM after 6 days by BCA assay; format: cell-based
[3] = test system: MCF/ADR; assay: Reversal of P-gp-mediated multidrug resistance in human MCF/ADR cells assessed as ratio of adriamycin ED50 without drug to adriamycin ED50 with drug at 1.07 uM after 6 days by BCA assay; format: cell-based
[4] = Cytotoxicity against human MCF7/ADR cells assessed as ratio of drug concentration to 2 x drug ED50 at 0.28 uM after 6 days by BCA assay; format: functional, NCI/ADR-RES
[5] = Cytotoxicity against human MCF7/ADR cells assessed as ratio of drug concentration to 2 x drug ED50 at 0.53 uM after 6 days by BCA assay; format: functional, NCI/ADR-RES
[6] = Cytotoxicity against human MCF7/ADR cells assessed as ratio of drug concentration to 2 x drug ED50 at 1.07 uM after 6 days by BCA assay; format: functional, NCI/ADR-RES
[7] = test system: MCF; assay: Reversal of P-gp-mediated multidrug resistance in human MCF cells assessed as enhancement in cytotoxicity of adriamycin; format: cell-based
[8] = test system: MCF/ADR; assay: Reversal of P-gp-mediated multidrug resistance in human MCF/ADR cells assessed as enhancement in cytotoxicity of adriamycin; format: cell-based
[9] = Cytotoxicity against human MCF7/ADR cells after 6 days by coulter counted assay; format: functional; details: NCI/ADR-RES, 144 h, read-out: ED50 (the source's name)
[10] = Cytotoxicity against human MCF7/ADR cells after 6 days by BCA assay; format: functional; details: NCI/ADR-RES, 144 h, read-out: ED50 (the source's name)
[11] = test system: MCF7; assay: Cytotoxicity against human MCF7 cells after 6 days by coulter counted assay; format: functional; details: MCF7, 144 h, read-out: ED50 (the source's name)
[12] = test system: MCF7; assay: Cytotoxicity against human MCF7 cells after 6 days by BCA assay; format: functional; details: MCF7, 144 h, read-out: ED50 (the source's name)
[13] = Cytotoxicity against human MCF7/ADR cells assessed as ratio of drug concentration to 2 x drug ED50 at 0.82 uM after 6 days by BCA assay; format: functional, NCI/ADR-RES
[14] = Cytotoxicity against human MCF7/ADR cells assessed as ratio of drug concentration to 2 x drug ED50 at 1.64 uM after 6 days by BCA assay; format: functional, NCI/ADR-RES
[15] = Cytotoxicity against human MCF7/ADR cells assessed as ratio of drug concentration to 2 x drug ED50 at 3.29 uM after 6 days by BCA assay; format: functional, NCI/ADR-RES
[16] = Displacement of N-(p-azido-[3-125I]salicyl)-N'-beta-aminoethylvindesine from P-glycoprotein at 12.4 uM
[17] = Cytotoxicity against human MCF7/ADR cells assessed as ratio of drug concentration to 2 x drug ED50 at 0.15 uM after 6 days by BCA assay; format: functional, NCI/ADR-RES
[18] = Cytotoxicity against human MCF7/ADR cells assessed as ratio of drug concentration to 2 x drug ED50 at 0.30 uM after 6 days by BCA assay; format: functional, NCI/ADR-RES
[19] = Cytotoxicity against human MCF7/ADR cells assessed as ratio of drug concentration to 2 x drug ED50 at 0.62 uM after 6 days by BCA assay; format: functional, NCI/ADR-RES
[20] = Cytotoxicity against human MCF7/ADR cells assessed as ratio of drug concentration to 2 x drug ED50 at 1.23 uM after 6 days by BCA assay; format: functional, NCI/ADR-RES
[21] = Cytotoxicity against human MCF7/ADR cells assessed as ratio of drug concentration to 2 x drug ED50 at 2.46 uM after 6 days by BCA assay; format: functional, NCI/ADR-RES

CC[C@H]1CN2CC[C@H]1C[C@H]2[C@@H](Oc1cc(C)c2ccccc2n1)c1ccnc2ccc(OC)cc12
Ratio ED50 [1]: 3
Ratio ED50 [2]: 6
Ratio ED50 [3]: 18
Ratio [4]: 0.03
Ratio [5]: 0.06
Ratio [6]: 0.11

C=C[C@H]1C[N+]2(Cc3ccccc3)CC[C@H]1C[C@H]2[C@H](O)c1ccnc2ccc(OC)cc12
Activity [7]: inactive
Activity [8]: inactive

COc1ccc(CCN(C)CCCC(C#N)(c2ccc(OC)c(OC)c2)C(C)C)cc1OC (stereo not drawn)
Activity [7]: inactive

COc1cccc2c1C(=O)c1c(O)c3c(c(O)c1C2=O)C[C@@](O)(C(=O)CO)C[C@@H]3O[C@H]1C[C@H](N)[C@H](O)[C@H](C)O1 [DOXORUBICIN]
EC50 [9]: 2.7 µg/mL (≈ 4.97 µM)
EC50 [10]: 0.47 µg/mL (≈ 0.865 µM)
Activity [7]: Active
EC50 [11]: 0.0021 µg/mL (≈ 0.00386 µM)
EC50 [12]: 0.0018 µg/mL (≈ 0.00331 µM)

COC(=O)[C@H]1[C@H]2C[C@H]3c4[nH]c5cc(OC)ccc5c4CCN3C[C@H]2C[C@@H](OC(=O)c2cc(OC)c(OC)c(OC)c2)[C@@H]1OC [ISORESERPINE]
Ratio [13]: 0.04
Ratio [14]: 0.09
Ratio [15]: 0.17

COC(=O)[C@H]1[C@H]2C[C@@H]3c4[nH]c5cc(OC)ccc5c4CCN3C[C@H]2C[C@@H](OC(=O)c2cc(OC)c(OC)c(OC)c2)[C@@H]1OC [RESERPINE]
Activity [16]: 79.2%
Ratio [17]: 0.05
Ratio [18]: 0.009
Ratio [19]: 0.02
Ratio [20]: 0.04
Ratio [21]: 0.08
